Holding throughout (format): functional
For one assay, the system named is Nephotettix cincticeps. As to the kind of experiment: Insecticidal activity against Nephotettix cincticeps (green rice leafhopper) in compound treated rice seedlings assessed as mortality at 500 ppm.
Another assay has as its system Myzus persicae. Description: Insecticidal activity against Myzus persicae (green peach aphid) in compound treated radish leaf assessed as mortality at 500 ppm.
The subject of another assay is Tetranychus urticae. As to the kind of experiment: Acaricidal activity against Tetranychus urticae (two-spotted spider mite) in compound treated kidney bean leaf assessed as larvicidal activity.
For another assay, the system named is Plutella xylostella. As to the kind of experiment: Insecticidal activity against Plutella xylostella (diamondback moth) in compound treated radish leaf assessed as mortality at 500 ppm.

Converted amounts (≈) assume the structure as drawn. Bounds are passed on as bounds.

Regarding `CCCCCCc1ccc(C2COC(c3c(F)cccc3F)=N2)cc1F` (configuration not stated), the mortality at 500 ppm in the assay with Nephotettix cincticeps, with Myzus persicae and with Plutella xylostella was 0% in each case. The LC50 in the assay on Tetranychus urticae was 0.1 µg/mL (≈ 0.277 µM).

As for `Fc1cc(C2COC(c3c(F)cccc3F)=N2)ccc1Cl` (configuration not stated), the mortality at 500 ppm in the assay on Nephotettix cincticeps turned out to be 60%; in the assay on Myzus persicae it was 100%; with Plutella xylostella, 35%. The median lethal concentration (LC50) with Tetranychus urticae worked out at 0.01 µg/mL (≈ 0.0321 µM).

As to `CCCCc1ccc(C2COC(c3c(F)cccc3F)=N2)cc1` (configuration not stated), the mortality at 500 ppm in the assay with Nephotettix cincticeps amounted to 10%; in the assay with Myzus persicae it was 100%; with Plutella xylostella it was 0%. Moreover, the median lethal concentration (LC50) with Tetranychus urticae is less than 0.001 µg/mL.

Turning to `CC(C)(C)c1ccc(C2COC(c3c(F)cccc3F)=N2)cc1` (configuration not stated), the values for the mortality at 500 ppm in the assay with Nephotettix cincticeps, in the assay on Myzus persicae and with Plutella xylostella were 60%, 100% and 0%, respectively. Further, the 50% lethal concentration (LC50) in the assay with Tetranychus urticae was less than 0.001 µg/mL.

As to `CCCCCCc1ccc(C2COC(c3c(F)cccc3F)=N2)cc1` (configuration not stated), the figures for the mortality at 500 ppm with Nephotettix cincticeps, in the assay on Myzus persicae and with Plutella xylostella were 0%, 100% and 10%, respectively. Further, in the assay with Tetranychus urticae, the LC50 is less than 0.001 µg/mL.

With `COc1cccc(C2COC(c3c(F)cccc3F)=N2)c1` (configuration not stated), the mortality at 500 ppm in the assay with Nephotettix cincticeps, in the assay with Myzus persicae and in the assay on Plutella xylostella was 0% throughout. Besides, the LC50 in the assay on Tetranychus urticae amounted to 1 µg/mL (≈ 3.46 µM).

For the molecule `Fc1cccc(F)c1C1=NC(c2ccc(Cl)cc2Cl)CO1` (configuration not stated), the mortality at 500 ppm with Nephotettix cincticeps amounted to 60%; with Myzus persicae, 100%; in the assay on Plutella xylostella it was 60%. In addition, the median lethal concentration (LC50) in the assay on Tetranychus urticae turned out to be 0.01 µg/mL (≈ 0.0305 µM).

Consider `CCCCCCCCc1ccc(C2COC(c3c(F)cccc3F)=N2)c(OC)c1` (configuration not stated), for which the mortality at 500 ppm worked out at 0% in the assay with Nephotettix cincticeps, 100% with Myzus persicae and 85% in the assay on Plutella xylostella. For the same molecule, the median lethal concentration (LC50) with Tetranychus urticae was 0.01 µg/mL (≈ 0.0249 µM).

As to `Fc1ccccc1C1COC(c2c(F)cccc2F)=N1` (configuration not stated), the mortality at 500 ppm in the assay on Nephotettix cincticeps amounted to 35%; with Myzus persicae, 60%; in the assay on Plutella xylostella, 10%. Moreover, in the assay on Tetranychus urticae, the LC50 came out at 1 µg/mL (≈ 3.61 µM).

As for `COc1cc(F)ccc1C1COC(c2c(F)cccc2F)=N1` (configuration not stated), the mortality at 500 ppm was 100% in the assay with Nephotettix cincticeps, 100% in the assay with Myzus persicae and 10% with Plutella xylostella. Further, in the assay on Tetranychus urticae, the LC50 came to 0.1 µg/mL (≈ 0.325 µM).

As for `CCCCCCCCCCc1ccc(C2COC(c3c(F)cccc3F)=N2)c(F)c1` (configuration not stated), the mortality at 500 ppm turned out to be 0% with Nephotettix cincticeps, 10% in the assay with Myzus persicae and 100% in the assay with Plutella xylostella. The LC50 in the assay on Tetranychus urticae worked out at 0.001 µg/mL (≈ 0.0024 µM).

In the case of `Fc1ccc(C2COC(c3c(F)cccc3F)=N2)c(F)c1` (configuration not stated), the mortality at 500 ppm worked out at 35% in the assay with Nephotettix cincticeps, 100% in the assay with Myzus persicae and 85% in the assay with Plutella xylostella. Moreover, the median lethal concentration (LC50) in the assay with Tetranychus urticae was determined as 0.01 µg/mL (≈ 0.0339 µM).

Consider `CCc1ccc(C2COC(c3c(F)cccc3F)=N2)c(F)c1` (configuration not stated), for which the mortality at 500 ppm in the assay on Nephotettix cincticeps, in the assay with Myzus persicae and in the assay with Plutella xylostella was 0% throughout. Further, in the assay with Tetranychus urticae, the median lethal concentration (LC50) came out at 0.1 µg/mL (≈ 0.328 µM).

`CCCOc1cc(C(C)(C)C)ccc1C1COC(c2c(F)cccc2F)=N1` (configuration not stated): the mortality at 500 ppm with Nephotettix cincticeps was determined as 60%; in the assay with Myzus persicae, 100%; in the assay on Plutella xylostella, 85%. Further, the 50% lethal concentration (LC50) in the assay on Tetranychus urticae was determined as 0.001 µg/mL (≈ 0.00268 µM).

In the case of `CCCCCCCCCCCCc1ccc(C2COC(c3c(F)cccc3F)=N2)c(Cl)c1` (configuration not stated), the mortality at 500 ppm in the assay on Nephotettix cincticeps is 0%; with Myzus persicae, 0%; in the assay on Plutella xylostella it was 60%. The LC50 with Tetranychus urticae came out at 0.1 µg/mL (≈ 0.216 µM).

As for `Fc1cccc(F)c1C1=NC(c2cccc(Cl)c2)CO1` (configuration not stated), the mortality at 500 ppm in the assay on Nephotettix cincticeps, in the assay on Myzus persicae and with Plutella xylostella was 0% each time. For the same molecule, the LC50 in the assay on Tetranychus urticae was found to be 1 µg/mL (≈ 3.4 µM).

In the case of `Cc1cccc(C2COC(c3c(F)cccc3F)=N2)c1` (configuration not stated), the mortality at 500 ppm with Nephotettix cincticeps, in the assay on Myzus persicae and with Plutella xylostella was 0% each time. Besides, in the assay with Tetranychus urticae, the median lethal concentration (LC50) stood at 10 µg/mL (≈ 36.6 µM).

On to `CCCCCCCCCSc1ccc(C2COC(c3c(F)cccc3F)=N2)cc1` (configuration not stated), for which the mortality at 500 ppm in the assay with Nephotettix cincticeps amounted to 0%; in the assay with Myzus persicae, 60%; in the assay with Plutella xylostella, 85%. Also, the median lethal concentration (LC50) with Tetranychus urticae was found to be 0.01 µg/mL (≈ 0.0239 µM).

For orientation: mortality means the share of the test organisms that died. As a reminder, the LC50 is the concentration lethal to half of the exposed cells or organisms.

(Values after ChEMBL document CHEMBL3045663, “Synthesis and Activity of Novel Acaricidal/Insecticidal 2, 4-Diphenyl-1, 3-oxazolines” (J Pestic Sci, 2002).)
